Laboratory results taken from PubChem BioAssay AID330 (DTP/NCI, 2004).
Several values for one entry are separate records, joined by “and”; a condition that tells them apart may be missing. Identical values can stand only once. Inconclusive results and toxic doses are left out. How the source made its calls: active means survival T/C of 150% or more; inactive means T/C below 125% in these data.

System: P388 leukemia ip, CD2F1 mice, survival T/C
Assay: NCI In Vivo Anticancer Drug Screen. Data for tumor model P388 Leukemia (intraperitoneal) in CD2F1 (CDF1) mice
Conditions: endpoint: median survival time, higher = longer survival
In short: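 Mice carrying the transplanted tumor received test compound or vehicle. Survival was recorded in each group, and the value is the treated-group measurement divided by that of the vehicle-treated control group.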

[1] = dose: 3.12 mg/kg/injection, schedule: Q01DX005 (ip), vehicle: Klucel (hydroxypropylcellulose) (HPC)
[2] = dose: 6.25 mg/kg/injection, schedule: Q01DX005 (ip), vehicle: Klucel (hydroxypropylcellulose) (HPC)
[3] = dose: 12.5 mg/kg/injection, schedule: Q01DX005 (ip), vehicle: Klucel (hydroxypropylcellulose) (HPC)
[4] = dose: 50.0 mg/kg/injection, schedule: Q01DX005 (ip), vehicle: Klucel (hydroxypropylcellulose) (HPC)
[5] = dose: 100.0 mg/kg/injection, schedule: Q01DX005 (ip), vehicle: Klucel (hydroxypropylcellulose) (HPC)
[6] = dose: 200.0 mg/kg/injection, schedule: Q01DX005 (ip), vehicle: Klucel (hydroxypropylcellulose) (HPC)
[7] = dose: 60.0 mg/kg/injection, schedule: Q01DX005 (ip), vehicle: Klucel (hydroxypropylcellulose) (HPC)
[8] = dose: 60.0 mg/kg/injection, schedule: Q01DX005 (ip), vehicle: saline with Tween-80
[9] = dose: 120.0 mg/kg/injection, schedule: Q01DX005 (ip), vehicle: Klucel (hydroxypropylcellulose) (HPC)
[10] = dose: 120.0 mg/kg/injection, schedule: Q01DX005 (ip), vehicle: saline with Tween-80
[11] = dose: 240.0 mg/kg/injection, schedule: Q01DX005 (ip), vehicle: saline with Tween-80
[12] = dose: 50.0 mg/kg/injection, schedule: Q01DX005 (ip), vehicle: saline with Tween-80
[13] = dose: 100.0 mg/kg/injection, schedule: Q01DX005 (ip), vehicle: saline with Tween-80
[14] = dose: 50.0 mg/kg/injection, schedule: Q01DX009 (ip), vehicle: Klucel (hydroxypropylcellulose) (HPC)
[15] = dose: 100.0 mg/kg/injection, schedule: Q01DX009 (ip), vehicle: Klucel (hydroxypropylcellulose) (HPC)

Measured: T/C

COC1CC(O)(CC#N)C(OC(=O)c2ccc([N+](=O)[O-])cc2)C(COC(=O)c2ccc([N+](=O)[O-])cc2)O1 (centres undefined)
inactive: dose: 100.0 mg/kg/injection, schedule: Q04DX003 (ip), vehicle: Klucel (hydroxypropylcellulose) (HPC) 94 % of control | dose: 200.0 mg/kg/injection, schedule: Q04DX003 (ip), vehicle: Klucel (hydroxypropylcellulose) (HPC) 101 % of control | dose: 400.0 mg/kg/injection, schedule: Q04DX003 (ip), vehicle: Klucel (hydroxypropylcellulose) (HPC) 104 % of control

C[CH2][Sn]([O][Sn]([Cl])([CH2]C)[c]1ccccc1)[c]1ccccc1 (centres undefined)
inactive: [1] 118 % of control | [2] 101 % of control | [3] 101 % of control

O=C(Oc1cc(O)cc2[o+]c(-c3ccc(O)cc3)c(O)cc12)c1ccccc1
inactive: [4] 96 % of control | [5] 109 % of control | [6] 96 % of control

C=C(CC)C(=O)OCC
inactive: dose: 50.0 mg/kg/injection, schedule: Q01DX009 (ip), vehicle: saline 95 % of control | dose: 100.0 mg/kg/injection, schedule: Q01DX009 (ip), vehicle: saline 102 % of control | dose: 200.0 mg/kg/injection, schedule: Q01DX009 (ip), vehicle: saline 104 % of control

COc1ccc(/C=N/Nc2cc(C)nc3cc4c(cc23)OCO4)c2ccccc12
inactive: dose: 1.56 mg/kg/injection, schedule: Q01DX005 (ip), vehicle: Klucel (hydroxypropylcellulose) (HPC) 109 % of control | [1] 100 % of control | [2] 100 % of control and 102 % of control | [3] 110 % of control

CS/N=C(/c1ccc(/C(=N/SC)N(C)C)cc1)N(C)C
inactive: [7] 106 % of control | [8] 100 % of control | [9] 106 % of control | [10] 102 % of control | [11] 99 % of control

OCC(O)C(Cl)CCl (centres undefined)
inactive: dose: 60.0 mg/kg/injection, schedule: Q01DX005 (ip), vehicle: saline 101 % of control | dose: 120.0 mg/kg/injection, schedule: Q01DX005 (ip), vehicle: saline 100 % of control | dose: 240.0 mg/kg/injection, schedule: Q01DX005 (ip), vehicle: saline 86 % of control

CC(=O)OC(C(Br)CBr)C(OC(C)=O)C(Br)CBr (centres undefined)
inactive: dose: 7.5 mg/kg/injection, schedule: Q01DX009 (ip), vehicle: saline 104 % of control | dose: 15.0 mg/kg/injection, schedule: Q01DX009 (ip), vehicle: saline 110 % of control | dose: 30.0 mg/kg/injection, schedule: Q01DX009 (ip), vehicle: saline 106 % of control

COc1ccc2c(c1)CCC1C2CCC2(C)C1CCC2(O)CCN (centres undefined)
inactive: dose: 25.0 mg/kg/injection, schedule: Q04DX002 (ip), vehicle: saline 100 % of control | dose: 50.0 mg/kg/injection, schedule: Q04DX002 (ip), vehicle: saline 101 % of control | dose: 100.0 mg/kg/injection, schedule: Q04DX002 (ip), vehicle: saline 104 % of control

O=C1c2ccccc2C(=O)N1/N=C/c1ccc(O)cc1
inactive: [4] 101 % of control | [5] 99 % of control | [6] 100 % of control

O/N=C/C(=NCc1ccccn1)NO
inactive: [7] 107 % of control | [9] 103 % of control | dose: 240.0 mg/kg/injection, schedule: Q01DX005 (ip), vehicle: Klucel (hydroxypropylcellulose) (HPC) 103 % of control

CCOC(=O)NC1c2ccccc2Oc2c(C)cccc21 (centres undefined)
inactive: [12] 100 % of control | [13] 100 % of control | dose: 200.0 mg/kg/injection, schedule: Q01DX005 (ip), vehicle: saline with Tween-80 100 % of control

CCOC(=O)C1C(C(=O)c2ccccc2)C12C(=O)N(C)c1ccccc12 (centres undefined)
inactive: dose: 12.5 mg/kg/injection, schedule: Q04DX002 (ip), vehicle: saline with Tween-80 103 % of control | dose: 25.0 mg/kg/injection, schedule: Q04DX002 (ip), vehicle: saline with Tween-80 107 % of control | dose: 50.0 mg/kg/injection, schedule: Q04DX002 (ip), vehicle: saline with Tween-80 103 % of control

[N-]=[N+]=Nc1ccnc2cc(C(F)(F)F)ccc12
inactive: [8] 103 % of control | [10] 100 % of control | [11] 96 % of control

CCC1C2CCCCN3C(C4CC(C)C(=O)O4)CC(C4C(C)C(=O)OC14)C23 (centres undefined)
inactive: [4] 101 % of control | [5] 96 % of control | [6] 97 % of control | dose: 400.0 mg/kg/injection, schedule: Q01DX005 (ip), vehicle: Klucel (hydroxypropylcellulose) (HPC) 91 % of control

CN=C(NC)c1ccc(NC(=O)Nc2ccc(C)c(NC(=O)Nc3ccc(C(=NC)NC)cc3)c2)cc1
inactive: dose: 1.56 mg/kg/injection, schedule: Q01DX005 (ip), vehicle: saline 96 % of control | dose: 3.12 mg/kg/injection, schedule: Q01DX005 (ip), vehicle: saline 99 % of control | dose: 6.25 mg/kg/injection, schedule: Q01DX005 (ip), vehicle: saline 96 % of control | dose: 6.25 mg/kg/injection, schedule: Q01DX005 (ip), vehicle: suspension in saline 103 % of control

CCCCCN(C)c1ncnc2[nH]ncc12
inactive: dose: 25.0 mg/kg/injection, schedule: Q01DX005 (ip), vehicle: saline 94 % of control | dose: 50.0 mg/kg/injection, schedule: Q01DX005 (ip), vehicle: saline 95 % of control | dose: 100.0 mg/kg/injection, schedule: Q01DX005 (ip), vehicle: saline 100 % of control

CCCCCCCCCCCCCOC(=O)CC(C(=O)OCCCCCCCCCCCCC)S(=O)(=O)O (centres undefined)
inactive: [14] 99 % of control | [15] 95 % of control

N#Cc1c(-c2ccccc2)cn2c1[nH]c(=O)c1ccccc12
inactive: [8] 111 % of control | [10] 107 % of control | [11] 101 % of control

CN(C)CCCN1CCC2(CCC(C(C)(C)C)CC2)CC1
inactive: [12] 106 % of control | [13] 116 % of control

COC1(OC)C2(Cl)C(Cl)=C(Cl)C1(Cl)C1CCCCCC12 (centres undefined)
inactive: [8] 97 % of control | [10] 97 % of control | [11] 101 % of control

COc1cccc2c1C(=O)c1c(O)c3c(c(O)c1C2=O)C[C@@](O)(C(C)=O)C[C@@H]3OC1CC(N)C(C(C)O)O1 (some centres undefined)
inactive: dose: 3.12 mg/kg/injection, schedule: Q04DX003 (ip), vehicle: distilled water + Tween-80 117 % of control and 101 % of control | dose: 6.25 mg/kg/injection, schedule: Q04DX003 (ip), vehicle: distilled water + Tween-80 112 % of control and 92 % of control | dose: 12.5 mg/kg/injection, schedule: Q04DX003 (ip), vehicle: distilled water + Tween-80 114 % of control and 104 % of control | dose: 25.0 mg/kg/injection, schedule: Q04DX003 (ip), vehicle: distilled water + Tween-80 117 % of control and 111 % of control | dose: 50.0 mg/kg/injection, schedule: Q04DX003 (ip), vehicle: distilled water + Tween-80 117 % of control | dose: 100.0 mg/kg/injection, schedule: Q04DX003 (ip), vehicle: distilled water + Tween-80 119 % of control

C=C1C(=O)OC2CC(C)(O)C(O)CC3OC3(C)CC(OC(=O)/C(C)=C/C)C12 (centres undefined)
inactive: dose: 1.25 mg/kg/injection, schedule: Q01DX005 (ip), vehicle: Klucel (hydroxypropylcellulose) (HPC) 99 % of control | dose: 2.5 mg/kg/injection, schedule: Q01DX005 (ip), vehicle: Klucel (hydroxypropylcellulose) (HPC) 101 % of control | dose: 5.0 mg/kg/injection, schedule: Q01DX005 (ip), vehicle: Klucel (hydroxypropylcellulose) (HPC) 108 % of control | dose: 10.0 mg/kg/injection, schedule: Q01DX005 (ip), vehicle: Klucel (hydroxypropylcellulose) (HPC) 110 % of control

CC(=O)Oc1cc(C)c(OC(C)=O)c(OC(C)=O)c1C
inactive: dose: 100.0 mg/kg/injection, schedule: Q04DX002 (ip), vehicle: Klucel (hydroxypropylcellulose) (HPC) 102 % of control | dose: 200.0 mg/kg/injection, schedule: Q04DX002 (ip), vehicle: Klucel (hydroxypropylcellulose) (HPC) 90 % of control

COc1cc(/C=N/NC(N)=O)cc(OC)c1O
inactive: [14] 105 % of control | [15] 99 % of control | dose: 200.0 mg/kg/injection, schedule: Q01DX009 (ip), vehicle: Klucel (hydroxypropylcellulose) (HPC) 98 % of control

O=C(Nc1cc(C(F)(F)F)ccc1Cl)n1nc(Cl)c2ccc([N+](=O)[O-])cc21
inactive: dose: 50.0 mg/kg/injection, schedule: Q01DX009 (ip), vehicle: saline with Tween-80 102 % of control | dose: 100.0 mg/kg/injection, schedule: Q01DX009 (ip), vehicle: saline with Tween-80 104 % of control | dose: 200.0 mg/kg/injection, schedule: Q01DX009 (ip), vehicle: saline with Tween-80 95 % of control
